Test results reported in the NIST ThermoML archive (doi:10.1021/acs.jced.6b00350).
Several values for one entry are separate records, joined by “and”; a condition that tells them apart may be missing. Equal values may be shown once.

Settings: Liquid, Hot wire method

FC(F)CC(F)(F)F [1,1,1,3,3-pentafluoropropane]
Settings | thermal conductivity
283.24 K, 29153 kPa | 0.1046 W/m/K
283.25 K, 29157 kPa | 0.1041 W/m/K
283.29 K, 22330 kPa | 0.1022 W/m/K
283.3 K, 22338 kPa | 0.102 W/m/K
283.31 K, 16102 kPa | 0.09978 W/m/K
283.34 K, 10490 kPa | 0.09781 W/m/K
283.35 K, 10482 kPa | 0.09779 W/m/K
283.39 K, 5078 kPa | 0.09561 W/m/K
283.39 K, 5084 kPa | 0.09578 W/m/K
283.4 K, 124 kPa | 0.09369 W/m/K
297.28 K, 238 kPa | 0.08846 W/m/K and 0.0884 W/m/K
297.3 K, 6681 kPa | 0.09147 W/m/K
297.31 K, 6682 kPa | 0.09132 W/m/K
297.33 K, 12567 kPa | 0.09379 W/m/K
297.33 K, 12571 kPa | 0.09396 W/m/K
297.36 K, 12582 kPa | 0.09405 W/m/K
297.37 K, 12586 kPa | 0.09376 W/m/K
297.49 K, 19332 kPa | 0.09652 W/m/K
297.49 K, 19337 kPa | 0.09665 W/m/K
297.69 K, 229 kPa | 0.08847 W/m/K
297.69 K, 239 kPa | 0.0881 W/m/K
297.7 K, 6677 kPa | 0.0909 W/m/K and 0.09107 W/m/K
297.72 K, 12571 kPa | 0.09392 W/m/K
297.73 K, 12572 kPa | 0.0939 W/m/K
297.75 K, 12582 kPa | 0.09397 W/m/K
297.75 K, 12583 kPa | 0.09395 W/m/K
297.86 K, 19322 kPa | 0.09664 W/m/K
297.86 K, 19340 kPa | 0.09658 W/m/K
298.13 K, 233 kPa | 0.08778 W/m/K
298.14 K, 234 kPa | 0.08789 W/m/K
298.14 K, 6680 kPa | 0.09232 W/m/K and 0.09104 W/m/K
298.14 K, 12568 kPa | 0.09369 W/m/K
298.14 K, 12571 kPa | 0.09358 W/m/K
298.17 K, 12583 kPa | 0.09365 W/m/K
298.18 K, 12574 kPa | 0.09352 W/m/K
298.26 K, 19324 kPa | 0.09657 W/m/K
298.27 K, 19334 kPa | 0.09654 W/m/K
298.58 K, 12568 kPa | 0.09385 W/m/K
298.59 K, 12563 kPa | 0.09379 W/m/K
298.6 K, 6668 kPa | 0.09111 W/m/K
298.6 K, 6673 kPa | 0.0911 W/m/K
298.61 K, 230 kPa | 0.08804 W/m/K
298.61 K, 234 kPa | 0.08787 W/m/K
298.62 K, 12577 kPa | 0.09374 W/m/K
298.62 K, 12578 kPa | 0.09384 W/m/K
298.7 K, 19323 kPa | 0.09665 W/m/K
298.71 K, 19329 kPa | 0.09658 W/m/K
298.72 K, 26079 kPa | 0.09945 W/m/K
298.72 K, 26080 kPa | 0.09952 W/m/K
298.73 K, 33915 kPa | 0.1022 W/m/K
298.73 K, 33916 kPa | 0.1019 W/m/K
298.74 K, 41639 kPa | 0.1043 W/m/K
298.75 K, 41635 kPa | 0.1043 W/m/K
299.08 K, 12562 kPa | 0.09373 W/m/K
299.09 K, 12561 kPa | 0.09382 W/m/K
299.09 K, 26077 kPa | 0.09835 W/m/K
299.09 K, 26079 kPa | 0.09892 W/m/K
299.09 K, 33913 kPa | 0.1011 W/m/K
299.09 K, 33914 kPa | 0.1013 W/m/K
299.09 K, 41634 kPa | 0.1044 W/m/K
299.09 K, 41635 kPa | 0.1044 W/m/K
299.1 K, 6675 kPa | 0.09125 W/m/K
299.11 K, 6673 kPa | 0.0912 W/m/K
299.11 K, 12580 kPa | 0.0938 W/m/K
299.12 K, 12583 kPa | 0.09382 W/m/K
299.14 K, 227 kPa | 0.08804 W/m/K
299.14 K, 238 kPa | 0.08799 W/m/K
299.19 K, 19316 kPa | 0.09651 W/m/K
299.19 K, 19328 kPa | 0.09648 W/m/K
299.48 K, 41634 kPa | 0.1043 W/m/K
299.49 K, 33910 kPa | 0.1012 W/m/K
299.49 K, 33912 kPa | 0.1011 W/m/K
299.49 K, 41635 kPa | 0.1042 W/m/K
299.5 K, 26073 kPa | 0.09896 W/m/K
299.5 K, 26076 kPa | 0.099 W/m/K
299.89 K, 41632 kPa | 0.1042 W/m/K
299.9 K, 41629 kPa | 0.1042 W/m/K
299.91 K, 33908 kPa | 0.1013 W/m/K
299.92 K, 33910 kPa | 0.1013 W/m/K
299.93 K, 26071 kPa | 0.09862 W/m/K
299.93 K, 26073 kPa | 0.09884 W/m/K
300.35 K, 41624 kPa | 0.1042 W/m/K
300.35 K, 41629 kPa | 0.1044 W/m/K
300.37 K, 33905 kPa | 0.1015 W/m/K
300.38 K, 33907 kPa | 0.1015 W/m/K
300.4 K, 26067 kPa | 0.09874 W/m/K
300.41 K, 26067 kPa | 0.09891 W/m/K
301.58 K, 62451 kPa | 0.1103 W/m/K
301.58 K, 62455 kPa | 0.11 W/m/K
301.59 K, 68041 kPa | 0.1115 W/m/K
301.59 K, 68044 kPa | 0.1115 W/m/K
301.6 K, 9757 kPa | 0.09158 W/m/K
301.61 K, 9755 kPa | 0.09136 W/m/K
301.62 K, 52493 kPa | 0.1071 W/m/K
301.63 K, 4924 kPa | 0.08962 W/m/K
301.63 K, 52493 kPa | 0.1066 W/m/K
301.64 K, 4920 kPa | 0.089 W/m/K
301.65 K, 27815 kPa | 0.0982 W/m/K
301.65 K, 43573 kPa | 0.1041 W/m/K
301.65 K, 43574 kPa | 0.104 W/m/K
301.66 K, 27823 kPa | 0.09824 W/m/K
301.66 K, 35535 kPa | 0.1015 W/m/K
301.66 K, 35538 kPa | 0.1014 W/m/K
301.67 K, 289 kPa | 0.08665 W/m/K
301.67 K, 293 kPa | 0.08649 W/m/K
301.69 K, 21591 kPa | 0.09669 W/m/K
301.69 K, 21597 kPa | 0.09656 W/m/K
301.75 K, 15353 kPa | 0.09399 W/m/K
301.75 K, 15355 kPa | 0.0941 W/m/K
301.92 K, 62442 kPa | 0.11 W/m/K
301.92 K, 62448 kPa | 0.1098 W/m/K
301.93 K, 68033 kPa | 0.1115 W/m/K
301.93 K, 68038 kPa | 0.1117 W/m/K
301.97 K, 52486 kPa | 0.1073 W/m/K
301.97 K, 52491 kPa | 0.107 W/m/K
301.98 K, 9757 kPa | 0.09137 W/m/K
301.99 K, 9759 kPa | 0.09137 W/m/K
302 K, 43569 kPa | 0.104 W/m/K
302.01 K, 43570 kPa | 0.1038 W/m/K
302.02 K, 35523 kPa | 0.1016 W/m/K
302.02 K, 35525 kPa | 0.1012 W/m/K
302.03 K, 4920 kPa | 0.08894 W/m/K
302.03 K, 4923 kPa | 0.08935 W/m/K
302.03 K, 27815 kPa | 0.09838 W/m/K
302.03 K, 27819 kPa | 0.09867 W/m/K
302.07 K, 299 kPa | 0.08696 W/m/K
302.07 K, 21586 kPa | 0.09614 W/m/K
302.07 K, 21589 kPa | 0.09606 W/m/K
302.08 K, 296 kPa | 0.0866 W/m/K
302.14 K, 15358 kPa | 0.09347 W/m/K
302.14 K, 15361 kPa | 0.09381 W/m/K
302.29 K, 62439 kPa | 0.1101 W/m/K
302.29 K, 68021 kPa | 0.1115 W/m/K
302.3 K, 62445 kPa | 0.11 W/m/K
302.3 K, 68022 kPa | 0.1116 W/m/K
302.36 K, 52487 kPa | 0.1067 W/m/K
302.36 K, 52489 kPa | 0.107 W/m/K
302.39 K, 43573 kPa | 0.104 W/m/K
